Several values for one entry are separate records, joined by “and”; a condition that tells them apart may be missing. Equal entries are not always repeated. Toxic doses and inconclusive results are not listed. Peptide text beside a SMILES is read from it. * marks the point of attachment. Cbz = O=C(OCc1ccccc1)*; Bn = c1ccc(C*)cc1
System: L1210 leukemia ip in BDF1 mice, survival T/C
Assay: NCI In Vivo Anticancer Drug Screen. Data for tumor model L1210 Leukemia (intraperitoneal) in B6D2F1 (BDF1) mice
Details: endpoint: mean survival time, higher = longer survival
Outline: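 Survival endpoint. Drug-treated group vs vehicle group, expressed as T divided by C. Tumor passaged by transplantation.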

[1] = dose: 100.0 mg/kg/injection, schedule: Q01DX001 (ip), vehicle: saline
[2] = dose: 200.0 mg/kg/injection, schedule: Q01DX001 (ip), vehicle: saline
[3] = dose: 400.0 mg/kg/injection, schedule: Q01DX001 (ip), vehicle: saline
[4] = dose: 100.0 mg/kg/injection, schedule: Q01DX009 (ip), vehicle: Klucel (hydroxypropylcellulose) (HPC)
[5] = dose: 100.0 mg/kg/injection, schedule: Q04DX003 (ip), vehicle: Klucel (hydroxypropylcellulose) (HPC)
[6] = dose: 200.0 mg/kg/injection, schedule: Q01DX009 (ip), vehicle: Klucel (hydroxypropylcellulose) (HPC)
[7] = dose: 200.0 mg/kg/injection, schedule: Q04DX003 (ip), vehicle: Klucel (hydroxypropylcellulose) (HPC)
[8] = dose: 400.0 mg/kg/injection, schedule: Q01DX009 (ip), vehicle: Klucel (hydroxypropylcellulose) (HPC)
[9] = dose: 100.0 mg/kg/injection, schedule: Q04DX003 (ip), vehicle: saline with Tween-80
[10] = dose: 200.0 mg/kg/injection, schedule: Q04DX003 (ip), vehicle: saline with Tween-80
[11] = dose: 400.0 mg/kg/injection, schedule: Q04DX003 (ip), vehicle: saline with Tween-80
[12] = dose: 100.0 mg/kg/injection, schedule: Q01DX001 (ip), vehicle: carboxymethylcellulose (CMC)
[13] = dose: 200.0 mg/kg/injection, schedule: Q01DX001 (ip), vehicle: carboxymethylcellulose (CMC)
[14] = dose: 400.0 mg/kg/injection, schedule: Q01DX001 (ip), vehicle: carboxymethylcellulose (CMC)
[15] = dose: 400.0 mg/kg/injection, schedule: Q04DX003 (ip), vehicle: Klucel (hydroxypropylcellulose) (HPC)
[16] = dose: 100.0 mg/kg/injection, schedule: Q01DX001 (ip), vehicle: Klucel (hydroxypropylcellulose) (HPC)
[17] = dose: 200.0 mg/kg/injection, schedule: Q01DX001 (ip), vehicle: Klucel (hydroxypropylcellulose) (HPC)
[18] = dose: 400.0 mg/kg/injection, schedule: Q01DX001 (ip), vehicle: Klucel (hydroxypropylcellulose) (HPC)
[19] = dose: 100.0 mg/kg/injection, schedule: Q04DX003 (ip), vehicle: gum acacia
[20] = dose: 200.0 mg/kg/injection, schedule: Q04DX003 (ip), vehicle: gum acacia
[21] = dose: 400.0 mg/kg/injection, schedule: Q04DX003 (ip), vehicle: gum acacia

SMILES: O=C(CNC(=O)Nc1nccs1)NNC(=O)Nc1cccc(C(F)(F)F)c1
- T/C (dose: 50.0 mg/kg/injection, schedule: Q01DX009 (ip), vehicle: saline with Tween-80): 94 % of control
- T/C (dose: 100.0 mg/kg/injection, schedule: Q01DX009 (ip), vehicle: saline with Tween-80): 105 % of control
- T/C (dose: 200.0 mg/kg/injection, schedule: Q01DX009 (ip), vehicle: saline with Tween-80): 102 % of control

SMILES: C=CCNC(=O)c1cncc(C(=O)O)c1
- T/C [1]: 96 % of control
- T/C [2]: 104 % of control
- T/C [3]: 98 % of control

SMILES: CC1=CC(=N/S(=O)(=O)c2ccccc2)/C2CC(C)=C(C)CC2/C1=N\S(=O)(=O)c1ccccc1 (stereo not given)
- T/C [4]: 95 % of control
- T/C [5]: 95 % of control
- T/C [6]: 104 % of control
- T/C [7]: 92 % of control
- T/C [8]: 103 % of control

SMILES: Cc1cc2ncn(CO)c2cc1C
- T/C [9]: 100 % of control
- T/C [10]: 94 % of control
- T/C [11]: 100 % of control

SMILES: O=c1[nH]nnc2c1cnn2-c1ccccc1
- T/C [12]: 101 % of control
- T/C [13]: 97 % of control

SMILES: C=CCN(CC=C)P(=O)(N1CC1)N1CC1C (stereo not given)
- T/C (dose: 0.37 mg/kg/injection, schedule: Q01DX015 (ip), vehicle: carboxymethylcellulose (CMC)): 117 % of control
- T/C (dose: 6.0 mg/kg/injection, schedule: Q01DX009 (ip), vehicle: saline): 90 % of control
- T/C (dose: 10.0 mg/kg/injection, schedule: Q01DX001 (ip), vehicle: saline): 162 % of control

SMILES: CCOCCOCCCNCC(=O)N1CCN(C(=O)CNCCCOCCOCC)CC1
- T/C (dose: 50.0 mg/kg/injection, schedule: Q01DX001 (ip), vehicle: carboxymethylcellulose (CMC)): 97 % of control
- T/C [12]: 98 % of control
- T/C [13]: 108 % of control
- T/C [14]: 103 % of control

SMILES: C1=Cc2ccccc2/C1=C/c1cccc(/C=C2\C=Cc3ccccc32)c1
- T/C (dose: 6.25 mg/kg/injection, schedule: Q01DX009 (ip), vehicle: saline with Tween-80): 101 % of control
- T/C (dose: 12.5 mg/kg/injection, schedule: Q01DX009 (ip), vehicle: saline with Tween-80): 97 % of control
- T/C (dose: 12.5 mg/kg/injection, schedule: Q04DX003 (ip), vehicle: saline with Tween-80): 100 % of control
- T/C (dose: 25.0 mg/kg/injection, schedule: Q01DX009 (ip), vehicle: saline with Tween-80): 97 % of control
- T/C (dose: 25.0 mg/kg/injection, schedule: Q04DX003 (ip), vehicle: saline with Tween-80): 95 % of control

SMILES: CC(C)(C)CC(C)(C)N(CSc1ccc(Br)cc1)CSc1ccc(Br)cc1
- T/C [1]: 89 % of control
- T/C [2]: 90 % of control
- T/C [3]: 93 % of control

SMILES: O=P(NC(=S)OCCN1CC1)(NC(=S)OCCN1CC1)NC(=S)OCCN1CC1
- T/C [12]: 107 % of control
- T/C [13]: 96 % of control

SMILES: c1cc[n+](CC[n+]2ccccc2)cc1
- T/C [1]: 97 % of control
- T/C [4]: 100 % of control
- T/C (dose: 100.0 mg/kg/injection, schedule: Q01DX009 (ip), vehicle: saline): 101 % of control
- T/C [5]: 107 % of control
- T/C [2]: 103 % of control
- T/C [6]: 103 % of control
- T/C (dose: 200.0 mg/kg/injection, schedule: Q01DX009 (ip), vehicle: saline): 93 % of control
- T/C [7]: 101 % of control
- T/C [3]: 94 % of control
- T/C [8]: 91 % of control
- T/C (dose: 400.0 mg/kg/injection, schedule: Q01DX009 (ip), vehicle: saline): 90 % of control
- T/C [15]: 98 % of control

SMILES: COC(=O)c1cc(NS(=O)(=O)c2ccc(N)cc2)cc(C(=O)OC)c1
- T/C [1]: 93 % of control
- T/C [2]: 95 % of control
- T/C [3]: 97 % of control

SMILES: COc1cc2c(cc1OC)[C@@H]1Cc3ccc(OC)c(OC)c3CN1CC2
- T/C [12]: 102 % of control
- T/C [13]: 110 % of control
- T/C [14]: 94 % of control

SMILES: CC12CCC3=C(CCc4cc(O)ccc43)C1CCC2=O (stereo not given)
- T/C (dose: 75.0 mg/kg/injection, schedule: Q01DX001 (ip), vehicle: steriod suspending solution): 91 % of control
- T/C (dose: 150.0 mg/kg/injection, schedule: Q01DX001 (ip), vehicle: steriod suspending solution): 96 % of control
- T/C (dose: 300.0 mg/kg/injection, schedule: Q01DX001 (ip), vehicle: steriod suspending solution): 101 % of control

SMILES: Cc1cc([N+](=O)[O-])cc(C)c1C
- T/C [5]: 98 % of control
- T/C [7]: 102 % of control
- T/C [15]: 107 % of control

SMILES: c1ccc(C(c2ccccc2)c2ccc(C(c3ccccc3)(c3ccccc3)c3ccccc3)cc2)cc1
- T/C (dose: 87.5 mg/kg/injection, schedule: Q04DX003 (ip), vehicle: Klucel (hydroxypropylcellulose) (HPC)): 88 % of control

SMILES: NC(=S)N/N=C/c1cc(Cl)ccc1O
- T/C [12]: 94 % of control
- T/C [13]: 100 % of control
- T/C [14]: 96 % of control

SMILES: COC(=O)c1cccc(OC)c1-c1c(OC)cccc1C(=O)OC
- T/C [16]: 105 % of control
- T/C [17]: 103 % of control
- T/C [18]: 102 % of control

SMILES: O=C(NC(CSCc1ccccc1)C(=O)NC(Cc1ccc(O)cc1)C(=O)O)OCc1ccccc1 (stereo not given) (Cbz-Cys(Bn)-Tyr-OH; configuration not given here)
- T/C (dose: 100.0 mg/kg/injection, schedule: Q01DX009 (ip), vehicle: gum acacia): 95 % of control
- T/C [19]: 103 % of control
- T/C (dose: 200.0 mg/kg/injection, schedule: Q01DX009 (ip), vehicle: gum acacia): 95 % of control
- T/C [20]: 103 % of control
- T/C (dose: 400.0 mg/kg/injection, schedule: Q01DX009 (ip), vehicle: gum acacia): 89 % of control
- T/C [21]: 92 % of control

SMILES: CNC(=S)NNc1ccccc1
- T/C [4]: 110 % of control
- T/C [5]: 104 % of control
- T/C [19]: 98 % of control
- T/C [6]: 103 % of control
- T/C [7]: 104 % of control
- T/C [20]: 96 % of control
- T/C [8]: 103 % of control
- T/C [15]: 103 % of control
- T/C [21]: 101 % of control

SMILES: Cc1noc(C)c1[N+](=O)[O-]
- T/C (dose: 75.0 mg/kg/injection, schedule: Q01DX009 (ip), vehicle: saline): 97 % of control
- T/C (dose: 150.0 mg/kg/injection, schedule: Q01DX009 (ip), vehicle: saline): 94 % of control
- T/C (dose: 300.0 mg/kg/injection, schedule: Q01DX009 (ip), vehicle: saline): 101 % of control

SMILES: O=C(O)[C@H](O)[C@@H](O)C(=O)O.[Ga]
- T/C [1]: 106 % of control
- T/C [2]: 100 % of control
- T/C [3]: 104 % of control

SMILES: C[CH2][Sn](/[CH]=C/C=C/OC)([CH2]C)[CH2]C
- T/C (dose: 0.19 mg/kg/injection, schedule: Q01DX009 (ip), vehicle: saline): 99 % of control
- T/C (dose: 0.39 mg/kg/injection, schedule: Q01DX009 (ip), vehicle: saline): 94 % of control
- T/C (dose: 0.78 mg/kg/injection, schedule: Q01DX009 (ip), vehicle: saline): 99 % of control
- T/C (dose: 6.25 mg/kg/injection, schedule: Q01DX009 (ip), vehicle: saline): 94 % of control
- T/C (dose: 12.5 mg/kg/injection, schedule: Q01DX009 (ip), vehicle: saline): 97 % of control

SMILES: Nc1ncnc(N)c1NC(=O)Cc1cccc([N+](=O)[O-])c1
- T/C (dose: 12.5 mg/kg/injection, schedule: Q01DX001 (ip), vehicle: Klucel (hydroxypropylcellulose) (HPC)): 101 % of control
- T/C (dose: 25.0 mg/kg/injection, schedule: Q01DX001 (ip), vehicle: Klucel (hydroxypropylcellulose) (HPC)): 110 % of control
- T/C (dose: 50.0 mg/kg/injection, schedule: Q01DX001 (ip), vehicle: Klucel (hydroxypropylcellulose) (HPC)): 96 % of control and 103 % of control

SMILES: N/N=C(\N)c1cn(C2OC(CO)C(O)C2O)c2ncnc(N)c12 (stereo not given)
- T/C (dose: 5.0 mg/kg/injection, schedule: Q01DX001 (ip), vehicle: carboxymethylcellulose (CMC)): 109 % of control

SMILES: O=C(O)c1ccc(Nc2ncnc3nc[nH]c23)cc1
- T/C [9]: 104 % of control
- T/C [10]: 96 % of control
- T/C [11]: 102 % of control

SMILES: COC12C3C=CC4C(C=C3)C4C1C2Br (stereo not given)
- T/C [16]: 98 % of control
- T/C [17]: 103 % of control
- T/C [18]: 106 % of control
